Data reported in ChEMBL document CHEMBL1201861, “Genomics of Drug Sensitity in Cancer screening data, Wellcome Trust Sanger Institute”.

Key:
Experiment in all cases: cells
Format in all cases: functional, cell-based, Homo sapiens
[1] = system: COLO-800; settings: Homo sapiens, COLO-800;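 note: growth inhibition of COLO-800 cells, read out with a cell viability assay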
Description: SANGER: Inhibition of human COLO-800 cell growth in a cell viability assay.

[2] = system: COLO-829; settings: Homo sapiens, COLO-829
Description: SANGER: Inhibition of human COLO-829 cell growth in a cell viability assay.

[3] = system: CTB-1; settings: Homo sapiens, CTB-1
Description: SANGER: Inhibition of human CTB-1 cell growth in a cell viability assay.

[4] = system: DEL; settings: Homo sapiens, DEL;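 note: growth inhibition of the human DEL cell line, read out with a cell viability assay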
Description: SANGER: Inhibition of human DEL cell growth in a cell viability assay.

[5] = system: DMS-79; settings: Homo sapiens, DMS-79;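 note: growth inhibition measured with a cell viability assay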
Description: SANGER: Inhibition of human DMS-79 cell growth in a cell viability assay.

[6] = system: EC-GI-10; settings: Homo sapiens, EC-GI-10
Description: SANGER: Inhibition of human EC-GI-10 cell growth in a cell viability assay.

[7] = system: ES1; settings: Homo sapiens, ES1;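 note: growth inhibition of ES1 cells, read out with a cell viability assay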
Description: SANGER: Inhibition of human ES1 cell growth in a cell viability assay.

[8] = system: EW-16; settings: Homo sapiens, EW-16;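 note: growth inhibition of human EW-16 cells, read out as cell viability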
Description: SANGER: Inhibition of human EW-16 cell growth in a cell viability assay.

[9] = system: GAK; settings: Homo sapiens, GAK;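 note: cell growth inhibition read out by a cell viability assay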
Description: SANGER: Inhibition of human GAK cell growth in a cell viability assay.

[10] = system: GT3TKB; settings: Homo sapiens, GT3TKB;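 note: growth inhibition of the cell line, read out with a cell viability assay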
Description: SANGER: Inhibition of human GT3TKB cell growth in a cell viability assay.

[11] = system: HEL; settings: Homo sapiens, HEL;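 note: growth inhibition of HEL cells, read out with a cell viability assay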
Description: SANGER: Inhibition of human HEL cell growth in a cell viability assay.

[12] = system: HL-60; settings: Homo sapiens, HL-60;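 note: growth inhibition of human HL-60 cells, read out with a cell viability assay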
Description: SANGER: Inhibition of human HL-60 cell growth in a cell viability assay.

[13] = system: JAR; settings: Homo sapiens, JAR;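 note: growth inhibition of human JAR cells determined with a cell viability assay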
Description: SANGER: Inhibition of human JAR cell growth in a cell viability assay.

[14] = system: K562; settings: Homo sapiens, K562
Description: SANGER: Inhibition of human K-562 cell growth in a cell viability assay.

[15] = system: KARPAS-45; settings: Homo sapiens, KARPAS-45;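 note: inhibition of cell line growth, read out through a viability assay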
Description: SANGER: Inhibition of human KARPAS-45 cell growth in a cell viability assay.

[16] = system: KE-37; settings: Homo sapiens, KE-37;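 note: growth inhibition of KE-37 cells, read out with a cell viability assay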
Description: SANGER: Inhibition of human KE-37 cell growth in a cell viability assay.

[17] = system: KU812 cell line; settings: Homo sapiens, KU812;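 note: growth inhibition of KU812 cells, read out with a cell viability assay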
Description: SANGER: Inhibition of human KU812 cell growth in a cell viability assay.

[18] = system: LAN-6; settings: Homo sapiens, LAN-6;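 note: growth inhibition of LAN-6 cells, determined with a cell viability assay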
Description: SANGER: Inhibition of human LAN-6 cell growth in a cell viability assay.

[19] = system: LB373-MEL-D; settings: Homo sapiens, LB373-MEL-D;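 note: growth inhibition of the cell line, read out in a cell viability assay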
Description: SANGER: Inhibition of human LB373-MEL-D cell growth in a cell viability assay.

[20] = system: LB996-RCC; settings: Homo sapiens, LB996-RCC
Description: SANGER: Inhibition of human LB996-RCC cell growth in a cell viability assay.

[21] = system: LC-2-ad; settings: Homo sapiens, LC-2-ad;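 note: growth inhibition of human LC-2-ad cells, read out with a cell viability assay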
Description: SANGER: Inhibition of human LC-2-ad cell growth in a cell viability assay.

[22] = system: LNCaP-Clone-FGC; settings: Homo sapiens, LNCaP-Clone-FGC
Description: SANGER: Inhibition of human LNCaP-Clone-FGC cell growth in a cell viability assay.

[23] = system: LS-513; settings: Homo sapiens, LS-513
Description: SANGER: Inhibition of human LS-513 cell growth in a cell viability assay.

[24] = system: LU-134-A; settings: Homo sapiens, LU-134-A
Description: SANGER: Inhibition of human LU-134-A cell growth in a cell viability assay.

[25] = system: NCI-H209; settings: Homo sapiens, NCI-H209;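 note: growth inhibition of human NCI-H209 cells, measured by a cell viability assay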
Description: SANGER: Inhibition of human NCI-H209 cell growth in a cell viability assay.

[26] = system: NCI-H226; settings: Homo sapiens, NCI-H226;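 note: cell viability read-out used to gauge growth inhibition of the cells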
Description: SANGER: Inhibition of human NCI-H226 cell growth in a cell viability assay.

[27] = system: NCI-H720; settings: Homo sapiens, NCI-H720;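 note: growth inhibition of human NCI-H720 cells determined by a cell viability assay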
Description: SANGER: Inhibition of human NCI-H720 cell growth in a cell viability assay.

[28] = system: NH-12; settings: Homo sapiens, NH-12;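 note: growth inhibition of NH-12 cells, read out with a cell viability assay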
Description: SANGER: Inhibition of human NH-12 cell growth in a cell viability assay.

[29] = system: NOS-1; settings: Homo sapiens, NOS-1;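 note: growth inhibition of the human NOS-1 cell line, read out with a cell viability assay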
Description: SANGER: Inhibition of human NOS-1 cell growth in a cell viability assay.

[30] = system: NTERA-2-cl-D1; settings: Homo sapiens, NTERA-2-cl-D1;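 note: inhibition of cell growth, measured with a cell viability assay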
Description: SANGER: Inhibition of human NTERA-S-cl-D1 cell growth in a cell viability assay.

[31] = system: P30-OHK; settings: Homo sapiens, P30-OHK;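 note: growth inhibition of the P30-OHK cell line, read out with a cell viability assay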
Description: SANGER: Inhibition of human P30-OHK cell growth in a cell viability assay.

[32] = system: PSN1; settings: Homo sapiens, PSN1;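 note: suppression of growth of human PSN1 cells, read out by a cell viability assay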
Description: SANGER: Inhibition of human PSN1 cell growth in a cell viability assay.

[33] = system: QIMR-WIL; settings: Homo sapiens, QIMR-WIL;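 note: growth inhibition of QIMR-WIL cells, read out with a cell viability assay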
Description: SANGER: Inhibition of human QIMR-WIL cell growth in a cell viability assay.

[34] = system: RH-1; settings: Homo sapiens, RH-1;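 note: growth inhibition of human RH-1 cells, read out with a cell viability assay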
Description: SANGER: Inhibition of human RH-1 cell growth in a cell viability assay.

[35] = system: RPMI-8866; settings: Homo sapiens, RPMI-8866
Description: SANGER: Inhibition of human RPMI-8866 cell growth in a cell viability assay.

[36] = system: SF-126; settings: Homo sapiens, SF-126;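 note: growth inhibition of human SF126 cells, read out with a cell viability assay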
Description: SANGER: Inhibition of human SF126 cell growth in a cell viability assay.

[37] = system: SF-539; settings: Homo sapiens, SF-539;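 note: Read-out is a cell viability assay, with IC50 reflecting inhibition of cell growth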
Description: SANGER: Inhibition of human SF539 cell growth in a cell viability assay.

[38] = system: SK-LMS-1; settings: Homo sapiens, SK-LMS-1;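 note: growth inhibition of human SK-LMS-1 cells, read out with a cell viability assay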
Description: SANGER: Inhibition of human SK-LMS-1 cell growth in a cell viability assay.

[39] = system: SW872; settings: Homo sapiens, SW872;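 note: growth inhibition of SW872 cells, read out by a viability assay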
Description: SANGER: Inhibition of human SW872 cell growth in a cell viability assay.

[40] = system: A388; settings: Homo sapiens, A388;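 note: growth inhibition of human A388 cells, read out with a cell viability assay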
Description: SANGER: Inhibition of human A388 cell growth in a cell viability assay.

[41] = system: A498; settings: Homo sapiens, A498;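 note: growth inhibition of human A498 cells, read out with a cell viability assay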
Description: SANGER: Inhibition of human A498 cell growth in a cell viability assay.

[42] = system: ALL-PO; settings: Homo sapiens, ALL-PO;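 note: growth inhibition of ALL-PO cells, read out by a cell viability assay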
Description: SANGER: Inhibition of human ALL-PO cell growth in a cell viability assay.

[43] = system: ATN-1; settings: Homo sapiens, ATN-1;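 note: growth inhibition of human ATN-1 cells, read out with a cell viability assay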
Description: SANGER: Inhibition of human ATN-1 cell growth in a cell viability assay.

[44] = system: TE-10; settings: Homo sapiens, TE-10;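 note: growth inhibition of TE-10 cells, measured by a cell viability assay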
Description: SANGER: Inhibition of human TE-10 cell growth in a cell viability assay.

[45] = system: TE-5; settings: Homo sapiens, TE-5;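 note: inhibition of cell growth, read out by a cell viability assay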
Description: SANGER: Inhibition of human TE-5 cell growth in a cell viability assay.

[46] = system: TE-8; settings: Homo sapiens, TE-8;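 note: growth inhibition of TE-8 cells, measured with a cell viability readout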
Description: SANGER: Inhibition of human TE-8 cell growth in a cell viability assay.

[47] = system: TGBC1TKB; settings: Homo sapiens, TGBC1TKB;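 note: growth inhibition of TGBC1TKB cells, read out by a cell viability assay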
Description: SANGER: Inhibition of human TGBC1TKB cell growth in a cell viability assay.

[48] = system: CCRF-CEM; settings: Homo sapiens, CCRF-CEM;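 note: inhibition of CCRF-CEM cell growth, measured by a cell viability assay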
Description: SANGER: Inhibition of human CCRF-CEM cell growth in a cell viability assay.

[49] = system: COLO-320-HSR; settings: Homo sapiens, COLO-320-HSR;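 note: growth inhibition of COLO-320-HSR cells, determined with a cell viability assay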
Description: SANGER: Inhibition of human COLO-320-HSR cell growth in a cell viability assay.

OCCCNc1cc(-c2ccnc(Nc3cccc(Cl)c3)n2)ccn1
IC50 [1]: > 256 nM
IC50 [2]: > 256 nM
IC50 [3]: 153 nM
IC50 [4]: 25.8 nM
IC50 [5]: > 256 nM
IC50 [6]: > 256 nM
IC50 [7]: > 256 nM
IC50 [8]: 32.8 nM
IC50 [9]: > 256 nM
IC50 [10]: 59 nM
IC50 [11]: 114 nM
IC50 [12]: > 256 nM
IC50 [13]: 81.8 nM
IC50 [14]: > 256 nM
IC50 [15]: 104 nM
IC50 [16]: 81.8 nM
IC50 [17]: 45 nM
IC50 [18]: 149 nM
IC50 [19]: 209 nM
IC50 [20]: 32.5 nM
IC50 [21]: 16.6 nM
IC50 [22]: > 256 nM
IC50 [23]: > 256 nM
IC50 [24]: 123 nM
IC50 [25]: 135 nM
IC50 [26]: 213 nM
IC50 [27]: > 256 nM
IC50 [28]: > 256 nM
IC50 [29]: 19.6 nM
IC50 [30]: 50.8 nM
IC50 [31]: > 256 nM
IC50 [32]: 15.2 nM
IC50 [33]: 48.8 nM
IC50 [34]: > 256 nM
IC50 [35]: 73.8 nM
IC50 [36]: 134 nM
IC50 [37]: > 256 nM
IC50 [38]: 135 nM
IC50 [39]: 26.6 nM
IC50 [40]: 47.7 nM
IC50 [41]: > 256 nM
IC50 [42]: 80 nM
IC50 [43]: 54.2 nM
IC50 [44]: 38.2 nM
IC50 [45]: 90.5 nM
IC50 [46]: 23.8 nM
IC50 [47]: 23.6 nM
IC50 [48]: 47 nM
IC50 [49]: 82.9 nM

Oc1ccc2ccccc2c1SSc1c(O)ccc2ccccc12
IC50 [1]: > 32000 nM
IC50 [2]: > 32000 nM
IC50 [3]: 12700 nM
IC50 [4]: 9640 nM
IC50 [5]: > 32000 nM
IC50 [6]: > 32000 nM
IC50 [7]: > 32000 nM
IC50 [8]: 24800 nM
IC50 [9]: > 32000 nM
IC50 [10]: > 32000 nM
IC50 [11]: 3730 nM
IC50 [12]: 8850 nM
IC50 [13]: > 32000 nM
IC50 [14]: > 32000 nM
IC50 [15]: 12800 nM
IC50 [16]: 3500 nM
IC50 [17]: 2760 nM
IC50 [18]: > 32000 nM
IC50 [19]: > 32000 nM
IC50 [20]: > 32000 nM
IC50 [21]: 24100 nM
IC50 [22]: > 32000 nM
IC50 [23]: > 32000 nM
IC50 [24]: > 32000 nM
IC50 [25]: > 32000 nM
IC50 [26]: 12600 nM
IC50 [27]: > 32000 nM
IC50 [28]: 5120 nM
IC50 [29]: 11700 nM
IC50 [30]: > 32000 nM
IC50 [31]: 9870 nM
IC50 [32]: > 32000 nM
IC50 [33]: 2910 nM
IC50 [34]: 27800 nM
IC50 [35]: > 32000 nM
IC50 [36]: > 32000 nM
IC50 [37]: > 32000 nM
IC50 [38]: 14800 nM
IC50 [39]: 7840 nM
IC50 [40]: > 32000 nM
IC50 [41]: > 32000 nM
IC50 [42]: 13900 nM
IC50 [43]: > 32000 nM
IC50 [44]: > 32000 nM
IC50 [45]: > 32000 nM
IC50 [46]: > 32000 nM
IC50 [47]: > 32000 nM
IC50 [48]: 5980 nM
IC50 [49]: > 32000 nM

N#Cc1c(O)c2c(-c3ccc(-c4ccccc4O)cc3)csc2[nH]c1=O
IC50 [1]: > 1020 nM
IC50 [2]: > 1020 nM
IC50 [3]: > 1020 nM
IC50 [4]: 228 nM
IC50 [5]: > 1020 nM
IC50 [6]: > 1020 nM
IC50 [7]: > 1020 nM
IC50 [8]: > 1020 nM
IC50 [9]: > 1020 nM
IC50 [10]: > 1020 nM
IC50 [11]: 107 nM
IC50 [12]: 97.4 nM
IC50 [13]: > 1020 nM
IC50 [14]: > 1020 nM
IC50 [15]: 170 nM
IC50 [16]: 129 nM
IC50 [17]: > 1020 nM
IC50 [18]: > 1020 nM
IC50 [19]: > 1020 nM
IC50 [20]: > 1020 nM
IC50 [21]: > 1020 nM
IC50 [22]: 547 nM
IC50 [23]: > 1020 nM
IC50 [24]: 231 nM
IC50 [25]: > 1020 nM
IC50 [26]: 407 nM
IC50 [27]: > 1020 nM
IC50 [28]: 36.9 nM
IC50 [29]: > 1020 nM
IC50 [30]: > 1020 nM
IC50 [31]: 993 nM
IC50 [32]: > 1020 nM
IC50 [33]: 36.4 nM
IC50 [34]: > 1020 nM
IC50 [35]: > 1020 nM
IC50 [36]: > 1020 nM
IC50 [37]: > 1020 nM
IC50 [38]: > 1020 nM
IC50 [39]: > 1020 nM
IC50 [40]: > 1020 nM
IC50 [41]: > 1020 nM
IC50 [42]: 57.9 nM
IC50 [43]: 499 nM
IC50 [44]: > 1020 nM
IC50 [45]: > 1020 nM
IC50 [46]: > 1020 nM
IC50 [47]: > 1020 nM
IC50 [48]: 146 nM
IC50 [49]: > 1020 nM
